The record followed here is article PMC4412152, “Human olfactory receptor responses to odorants” (Scientific Data, 2015).

Changes are numbered by the printed parent chain.

What all share (assay): CRE-luciferase cAMP reporter (Dual-Glo), Hana3A cells
Assay type in all cases: cell-based

For one test, the target named is T1, OR2J3 (Homo sapiens, UniProt O76001).
T1 construct: full-length ORF with N-terminal Rho tag, pCI, Hana3A cells with RTP1S; four clones with the same label
T1 sequence (O76001 1-311): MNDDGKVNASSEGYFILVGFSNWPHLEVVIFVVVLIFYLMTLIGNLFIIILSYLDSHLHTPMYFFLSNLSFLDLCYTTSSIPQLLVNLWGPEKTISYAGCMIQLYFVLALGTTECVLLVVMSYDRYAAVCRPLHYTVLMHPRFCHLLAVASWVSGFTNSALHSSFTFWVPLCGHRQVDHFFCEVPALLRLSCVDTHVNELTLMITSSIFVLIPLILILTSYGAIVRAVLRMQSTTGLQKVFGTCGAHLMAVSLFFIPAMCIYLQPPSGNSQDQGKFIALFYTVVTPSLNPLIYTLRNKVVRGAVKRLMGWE
The text has this: CRE-luciferase cAMP reporter (Dual-Glo), Hana3A cells on OR2J3

The target in another test is T2, OR4F17 (Homo sapiens, UniProt Q8NGA8).
T2 construct: full-length ORF with N-terminal Rho tag, pCI, Hana3A cells with RTP1S
T2 sequence (Q8NGA8 1-305): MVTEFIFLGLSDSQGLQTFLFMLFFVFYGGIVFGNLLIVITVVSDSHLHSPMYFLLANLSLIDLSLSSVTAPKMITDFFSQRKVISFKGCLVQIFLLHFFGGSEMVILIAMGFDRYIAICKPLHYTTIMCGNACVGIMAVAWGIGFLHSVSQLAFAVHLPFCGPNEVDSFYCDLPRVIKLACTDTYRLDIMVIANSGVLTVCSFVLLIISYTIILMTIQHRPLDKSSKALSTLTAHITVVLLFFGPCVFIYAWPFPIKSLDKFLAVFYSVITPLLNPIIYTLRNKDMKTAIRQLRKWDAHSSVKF
The text has this:
CRE-luciferase cAMP reporter (Dual-Glo), Hana3A cells on OR4F17

Test [1] addresses T3, OR2T1 (Homo sapiens, UniProt A0A126GWK9).
T3 construct: full-length ORF with N-terminal Rho tag, pCI, Hana3A cells with RTP1S; two clones with the same label
T3 sequence (A0A126GWK9 1-318): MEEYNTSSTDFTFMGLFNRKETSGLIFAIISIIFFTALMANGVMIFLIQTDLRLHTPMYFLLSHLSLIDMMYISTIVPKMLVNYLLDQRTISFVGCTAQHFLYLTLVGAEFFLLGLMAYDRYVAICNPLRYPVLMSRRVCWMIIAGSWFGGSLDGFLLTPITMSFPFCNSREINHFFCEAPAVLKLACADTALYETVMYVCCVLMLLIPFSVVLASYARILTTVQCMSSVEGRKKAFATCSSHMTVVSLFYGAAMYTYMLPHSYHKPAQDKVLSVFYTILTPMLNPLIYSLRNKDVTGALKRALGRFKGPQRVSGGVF
An excerpt: (§1) CRE-luciferase cAMP reporter (Dual-Glo), Hana3A cells on OR2T1

Test [2] addresses T4, OR2T1 (Homo sapiens, UniProt A0A126GWK9, I76V).
T4 construct: full-length ORF with N-terminal Rho tag, pCI, Hana3A cells with RTP1S; two clones with the same label
T4 sequence (A0A126GWK9 1-318 I76V): T3 sequence (A0A126GWK9 1-318) with I76V
Source text: as §1

The target of the next test is T5, OR56A4 (Homo sapiens, UniProt Q8NGH8).
T5 construct: full-length ORF with N-terminal Rho tag, pCI, Hana3A cells with RTP1S
T5 sequence (Q8NGH8 1-313): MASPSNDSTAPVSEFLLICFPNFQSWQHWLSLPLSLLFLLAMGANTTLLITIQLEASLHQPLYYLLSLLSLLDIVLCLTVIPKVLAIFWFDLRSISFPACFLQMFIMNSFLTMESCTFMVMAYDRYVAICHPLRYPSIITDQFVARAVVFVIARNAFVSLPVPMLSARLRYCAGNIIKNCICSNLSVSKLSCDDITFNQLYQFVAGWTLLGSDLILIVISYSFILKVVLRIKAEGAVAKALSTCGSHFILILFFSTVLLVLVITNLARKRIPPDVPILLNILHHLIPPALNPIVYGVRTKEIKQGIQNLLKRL
An excerpt: CRE-luciferase cAMP reporter (Dual-Glo), Hana3A cells on OR56A4

Another test has as its target T6, OR10G4 (Homo sapiens, UniProt Q8NGN3, K295Q).
T6 construct: full-length ORF with N-terminal Rho tag, pCI, Hana3A cells with RTP1S; two clones with the same label
T6 sequence (Q8NGN3 1-311 K295Q): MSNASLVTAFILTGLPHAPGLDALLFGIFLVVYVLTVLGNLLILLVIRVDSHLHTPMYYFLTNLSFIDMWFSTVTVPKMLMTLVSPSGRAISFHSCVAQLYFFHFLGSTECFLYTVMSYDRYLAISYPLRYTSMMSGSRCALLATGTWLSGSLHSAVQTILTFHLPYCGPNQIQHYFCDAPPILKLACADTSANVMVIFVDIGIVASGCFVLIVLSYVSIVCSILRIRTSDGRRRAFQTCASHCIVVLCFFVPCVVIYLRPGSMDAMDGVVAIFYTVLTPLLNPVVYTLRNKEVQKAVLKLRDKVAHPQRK
An excerpt: CRE-luciferase cAMP reporter (Dual-Glo), Hana3A cells on OR10G4

A further test concerns the target T7, OR8D1 (Homo sapiens, UniProt Q8WZ84).
T7 construct: full-length ORF with N-terminal Rho tag, pCI, Hana3A cells with RTP1S
T7 sequence (Q8WZ84 1-308): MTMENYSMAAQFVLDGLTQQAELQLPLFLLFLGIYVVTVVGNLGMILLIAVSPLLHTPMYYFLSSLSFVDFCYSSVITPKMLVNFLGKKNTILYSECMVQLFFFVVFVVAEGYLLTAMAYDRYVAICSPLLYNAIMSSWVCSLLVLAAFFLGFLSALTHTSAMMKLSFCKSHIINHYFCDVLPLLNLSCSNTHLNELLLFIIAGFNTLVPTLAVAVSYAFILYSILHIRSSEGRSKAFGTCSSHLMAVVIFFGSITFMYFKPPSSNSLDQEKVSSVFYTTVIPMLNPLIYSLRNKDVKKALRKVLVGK
To be noted: agonist; rounded to whole log unit. An excerpt: CRE-luciferase cAMP reporter (Dual-Glo), Hana3A cells on OR8D1

As to `CCCCCOC(C)=O` [compound 1078, n-amyl acetate], at OR2J3, the EC50 was 1 µM.
For `C[C@]12CCC(=O)C[C@@H]1CC[C@@H]1[C@@H]2CC[C@]2(C)C=CC[C@@H]12` [compound 1290, 5α-androst-16-en-3-one], on OR4F17, the EC50 was 1000 µM.
`CCCC(=O)O` [compound 1295, butyric acid]: the EC50 at OR2T1 [1] and on OR2T1 [2] was 100 µM throughout.
`CC/C=C\CCO` [compound 1300, cis-3-hexen-1-ol]: the EC50 on OR2J3 is 10 µM.
On OR2J3, `CC(=O)OC/C=C(\C)CCC=C(C)C` [compound 1316, geranyl acetate] gave an EC50 of 1000 µM.
Compound `CCCCCCCCCCC=O` [compound 1345, undecanal] gave an EC50 on OR56A4 of 0.1 µM.
Compound `COc1cc(C=O)ccc1O` [compound 1346, vanillin] had an EC50 on OR10G4 of 10 µM.
In the case of caramel furanone [compound 1396], the EC50 at OR8D1 is listed as −5 log10 M.
